Measured values: the supplement of paper PMC4858399

Key:
[1] = system: Caenorhabditis elegans N2; assay: mean nematode size ln(EXT) after 48 h, plate-adjusted (DMSO control set to 6) (ln(EXT), control-adjusted); higher = larger nematodes / less growth inhibition; conditions: exposure time 48 h
In short: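 In K-medium with killed OP50, 1% DMSO and 0.5–200 µM chemical, synchronised N2 L1 larvae of C. elegans (50 per well) grew for 48 h at 20°C. Extinction was read for every worm on the Biosort, with debris removed by a growth model. Natural-log values averaged per well gave mean size, which was corrected per plate by subtracting the vehicle control mean and adding 6.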

[2] = system: Caenorhabditis elegans N2; assay: lowest effective concentration for larval growth inhibition (size below effect threshold); higher = less potent; conditions: exposure time 48 h
In short: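 Chemical exposure ran for 48 h at 20°C: 50 C. elegans N2 L1 larvae per 96-well in K-medium with killed bacteria, 1% DMSO and 0.5, 1, 5, 10, 50, 100 or 200 µM chemical. Extinction of each worm, read as size on the Biosort, was log-transformed and averaged by well. The lowest effective concentration is the first dose whose plate-adjusted mean size is below a fixed value and remains so at all higher doses; the value is 5.665.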

Structure (SMILES)	mean nematode size ln(EXT) (ln) ([1]; 0.5 µM)	mean nematode size ln(EXT) (ln) ([1]; 1 µM)	mean nematode size ln(EXT) (ln) ([1]; 5 µM)	mean nematode size ln(EXT) (ln) ([1]; 10 µM)	mean nematode size ln(EXT) (ln) ([1]; 50 µM)	mean nematode size ln(EXT) (ln) ([1]; 100 µM)	mean nematode size ln(EXT) (ln) ([1]; 200 µM)	lowest effective concentration [2] [µM]
CC(C)=CCC/C(C)=C/C=O [3,7-Dimethyl-2,6-octadienal]	5.72	5.74	5.77	5.84	5.78	5.88	5.73	> 200
O=P1(N(CCCl)CCCl)NCCCO1 (centres undefined) [Cytoxan hydrate]	5.87	5.9	5.89	5.8	5.92	5.9	5.93	> 200
Cc1cc(-c2ccc(N)c(C)c2)ccc1N [o-Tolidine]	5.82	5.91	5.9	5.97	5.85	5.84	5.86	> 200
CCCCOC(=O)c1ccccc1C(=O)OCc1ccccc1 [Butyl benzyl phthalate]	5.93	5.94	6.01	5.98	6.17	5.76	5.67	> 200
Nc1ccc(-c2ccc(N)cc2)cc1 [Benzidine]	6.06	6.02	5.91	5.98	5.81	5.75	5.97	> 200
Cc1cccc(C)c1N [2,6-Dimethylaniline]	5.87	6.07	6.05	5.98	6	5.83	5.84	> 200
C=C(C)C(N)=O [Methacrylamide]	6.05	5.91	5.89	5.82	6.01	5.82	5.86	> 200
COc1cc(C=O)ccc1O [4-Hydroxy-3-methoxy-benzaldehyde]	5.83	5.83	5.77	5.77	5.69	5.84	5.8	> 200
Cc1ncc([C@@H](CCCCCCc2ccc3c(n2)NCCC3)CC(=O)O)cn1	5.81	5.79	5.84	5.84	5.8	5.87	5.86	> 200
O=C1CCC(N2C(=O)c3ccccc3C2=O)C(=O)N1 (centres undefined) [Thalidomide]	5.98	5.95	5.98	5.97	5.97	5.85	5.97	> 200
O=c1ccc(=O)[nH][nH]1 [Maleic hydrazide]	6.04	5.94	5.94	5.96	5.96	5.9	6.03	> 200
COc1cccc([C@H](O)C2CCN(CCc3ccc(F)cc3)CC2)c1OC [Volinanserin]	5.67	5.79	5.78	5.95	5.83	5.8	5.78	> 200
c1ccc2c(c1)Nc1ccccc1S2 [Phenothiazine]	6.07	6.03	5.92	5.8	5.55	5.59	5.99	> 200
